# Test results reported in patent publication US9982006B2, “2′-chloro aminopyrimidinone and pyrimidine dione nucleosides” (Gilead Sciences, Inc., priority 2014, dated 2018).
# Tested on: RSV strain A2
# Test: RSV cell culture EC50 determination (infectious cytopathic cell protection assay in HEp-2 cells)
# Format: cell-based
# Settings: human respiratory syncytial virus, 96 h; inhibition of RSV-induced cytopathic effect in HEp-2 cells, 4 days, Cell TiterGlo readout
# Method: RSV Cell Culture EC50 Determination
# Antiviral activity against RSV is determined using an infectious cytopathic cell protection assay in HEp-2 cells. In this assay, compounds inhibiting viral infection and/or replication produce a cytoprotective effect against the virus-induced cell killing that can be quantified using a cell viability reagent. The techniques used here are novel adaptations of methods described in published literature (Chapman et al., Antimicrob Agents Chemother. 2007, 51(9):3346-53.)
# HEp-2 cells are obtained from ATCC (Manassas, VI) and maintained in MEM media supplemented with 10% fetal bovine serum and penicillin/streptomycin. […]
# For antiviral tests, HEp-2 cells are grown in large cell culture flasks to near confluency but not fully so. […] Each compound dilution is transferred in single or quadruplicate samples into dry assay plates, which are stored until assay is ready to go. […]
# Subsequently, an infectious mixture is prepared using an appropriate dilution of virus stock previously determined by titration with cells at a density of 50,000/ml and 20 uL/well is added to test plates w/compounds via automation (uFlow, Biotek). […] After the incubation, a cell viability reagent, Cell TiterGlo (Promega, Madison, Wis.) is added to the assay plates, which are incubated briefly, and a luminescent readout is measured (Envision, Perkin Elmer) in all the assay plates. […]
compound,measurement,value
"Nc1ccn([C@@H]2O[C@@](CO)(CCl)[C@@H](O)[C@H]2Cl)c(=O)n1 [Example 1, 4-amino-1-((2R,3R,4R,5R)-3-chloro-5-(chloromethyl)-4-hydroxy-5-(hydroxymethyl)tetrahydrofuran-2-yl)pyrimidin-2(1H)-one]",EC50,> 50 µM
